Active and inactive are the calls of the source.
Columns and labels:
[1] = Counterscreen for inhibitors of Trypanosoma brucei methionyl tRNA synthetase (MetRS): Luminescence-based cell-based high throughput dose response assay to identify compounds that are cytotoxic to Jurkat human T lymphocyte cells.; type: functional
[2] = off-target signal loss in HeLa-CEM21 co-culture – HeLa F-luc CTL cells, cherry-picked, counter-screen for HIV-1 Env fusion inhibitor project, dose response (AID 652040); type: functional, cell-based;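 note: potency for signal decrease marking cytotoxic or nonspecific inhibition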
[3] = HIV-1 AD8 envelope cell-cell fusion blockers – cherry-pick, dose response (AID 652062); type: functional, cell-based;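 note: luciferase signal from cell-cell fusion driven by HIV-1 clade B AD8 Env; potency is for inhibitors of fusion seen as a drop in luminescence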
[4] = blockers of HIV-1 envelope-mediated cell-cell fusion – cherry-pick, dose response (AID 652057); type: functional, cell-based
BJ [5] = assay: BJ-TERT-LT-ST fibroblast viability loss – cell-based, RAS-independent, luminescence, dose response (AID 1935); type: functional; conditions: Homo sapiens;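 note: BJ fibroblasts immortalized with TERT plus LT and ST oncogenes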
BJ [6] = assay: cells; type: functional, cell-based; conditions: Homo sapiens
[7] = DRD fibroblast viability loss – cell-based, non-viral oncogenic, luminescence, dose response (AID 1934); type: functional; conditions: Homo sapiens
BJ [8] = assay: BJ-TERT fibroblast viability loss – cell-based, RAS-independent, luminescence, dose response (AID 1933); type: functional; conditions: Homo sapiens
Estrogen receptor beta = Estrogen receptor beta (Homo sapiens, UniProt Q92731);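 note: recombinant ER-beta bound to coactivator SRC1 peptide in presence of estradiol agonist; inhibitors block coactivator peptide binding and lower the FRET signal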
Sequence of Estrogen receptor beta (Q92731 whole entry): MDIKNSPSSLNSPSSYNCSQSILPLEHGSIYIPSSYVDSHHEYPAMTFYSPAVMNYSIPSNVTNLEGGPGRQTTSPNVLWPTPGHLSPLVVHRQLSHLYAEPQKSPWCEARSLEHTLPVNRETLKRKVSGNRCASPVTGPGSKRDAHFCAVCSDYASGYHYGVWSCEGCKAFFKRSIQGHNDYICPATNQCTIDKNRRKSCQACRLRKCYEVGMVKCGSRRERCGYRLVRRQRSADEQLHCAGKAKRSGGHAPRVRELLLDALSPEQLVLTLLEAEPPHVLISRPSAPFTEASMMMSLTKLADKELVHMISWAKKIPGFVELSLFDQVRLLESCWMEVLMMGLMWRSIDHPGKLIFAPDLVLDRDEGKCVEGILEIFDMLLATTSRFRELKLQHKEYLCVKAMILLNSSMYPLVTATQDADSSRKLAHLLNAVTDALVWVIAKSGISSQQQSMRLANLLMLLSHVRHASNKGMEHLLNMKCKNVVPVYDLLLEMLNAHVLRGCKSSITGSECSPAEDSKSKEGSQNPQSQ

[9] = molecular target: Ras and Rab interactor 1/Tyrosine-protein kinase ABL1 (Homo sapiens, UniProt P00519+Q13671); type: functional;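 note: biochemical TR-FRET dose-response test measuring inhibition of binding between Rin1 and Abl proteins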
Sequence of Ras and Rab interactor 1/Tyrosine-protein kinase ABL1 (P00519 whole entry): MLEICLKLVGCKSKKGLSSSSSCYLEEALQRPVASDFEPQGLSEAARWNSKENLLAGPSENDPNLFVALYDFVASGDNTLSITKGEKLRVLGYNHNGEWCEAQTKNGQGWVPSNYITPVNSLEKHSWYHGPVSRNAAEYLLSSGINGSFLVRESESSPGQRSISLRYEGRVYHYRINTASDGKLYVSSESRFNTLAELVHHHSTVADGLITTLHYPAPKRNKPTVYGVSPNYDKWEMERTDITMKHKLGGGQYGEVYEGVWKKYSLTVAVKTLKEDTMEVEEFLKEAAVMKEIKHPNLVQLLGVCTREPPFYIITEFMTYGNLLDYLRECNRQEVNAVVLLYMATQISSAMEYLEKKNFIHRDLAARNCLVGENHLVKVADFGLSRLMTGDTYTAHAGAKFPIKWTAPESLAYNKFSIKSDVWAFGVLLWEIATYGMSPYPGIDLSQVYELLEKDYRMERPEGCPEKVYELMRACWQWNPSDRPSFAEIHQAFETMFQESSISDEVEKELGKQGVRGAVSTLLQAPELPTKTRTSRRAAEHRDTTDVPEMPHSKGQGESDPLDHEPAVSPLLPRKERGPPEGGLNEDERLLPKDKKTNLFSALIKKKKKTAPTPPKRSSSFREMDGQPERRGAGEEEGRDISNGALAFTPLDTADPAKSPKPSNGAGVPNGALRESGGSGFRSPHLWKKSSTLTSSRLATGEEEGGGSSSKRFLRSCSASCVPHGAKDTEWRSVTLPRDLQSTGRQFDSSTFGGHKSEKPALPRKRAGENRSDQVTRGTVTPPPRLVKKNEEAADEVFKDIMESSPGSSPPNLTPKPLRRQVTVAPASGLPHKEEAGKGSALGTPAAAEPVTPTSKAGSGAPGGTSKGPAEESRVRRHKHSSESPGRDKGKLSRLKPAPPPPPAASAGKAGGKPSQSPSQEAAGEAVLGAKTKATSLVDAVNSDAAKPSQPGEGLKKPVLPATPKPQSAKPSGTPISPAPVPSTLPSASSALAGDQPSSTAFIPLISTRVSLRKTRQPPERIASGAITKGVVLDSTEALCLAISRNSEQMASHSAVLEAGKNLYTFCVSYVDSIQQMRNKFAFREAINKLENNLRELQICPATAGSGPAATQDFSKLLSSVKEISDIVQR
Sequence of Ras and Rab interactor 1/Tyrosine-protein kinase ABL1 (Q13671 whole entry): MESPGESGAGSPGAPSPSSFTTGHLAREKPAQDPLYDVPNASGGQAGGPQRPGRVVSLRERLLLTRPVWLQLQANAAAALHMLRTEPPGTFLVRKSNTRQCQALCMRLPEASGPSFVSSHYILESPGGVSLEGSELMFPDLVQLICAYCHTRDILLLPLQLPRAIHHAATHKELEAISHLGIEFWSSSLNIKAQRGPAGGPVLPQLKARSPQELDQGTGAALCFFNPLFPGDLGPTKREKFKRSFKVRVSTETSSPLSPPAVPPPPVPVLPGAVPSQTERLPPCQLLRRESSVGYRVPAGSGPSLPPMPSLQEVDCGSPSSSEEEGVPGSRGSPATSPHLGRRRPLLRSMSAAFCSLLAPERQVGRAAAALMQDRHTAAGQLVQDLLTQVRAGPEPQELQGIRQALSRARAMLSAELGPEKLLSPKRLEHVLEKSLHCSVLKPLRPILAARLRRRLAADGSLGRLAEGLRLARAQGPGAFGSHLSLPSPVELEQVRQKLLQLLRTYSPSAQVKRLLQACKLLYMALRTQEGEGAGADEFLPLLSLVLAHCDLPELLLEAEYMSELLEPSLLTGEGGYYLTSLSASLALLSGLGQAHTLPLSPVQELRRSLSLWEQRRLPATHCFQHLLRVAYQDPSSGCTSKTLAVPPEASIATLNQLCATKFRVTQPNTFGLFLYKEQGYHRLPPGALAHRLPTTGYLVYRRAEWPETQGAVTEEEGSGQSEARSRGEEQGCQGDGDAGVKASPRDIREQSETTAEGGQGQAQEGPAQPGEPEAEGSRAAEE

H9c2 = assay: cells; type: functional, cell-based; conditions: Rattus norvegicus, H9c2, Myocardium
[10] = molecular target: T1, Calpain-2 catalytic subunit (Sus scrofa, UniProt P43367); assay: m-calpain protease blockers, concentration series – biochemical, fluorogenic peptide substrate, dose response (AID 1420); type: functional
T1 sequence (P43367 whole entry): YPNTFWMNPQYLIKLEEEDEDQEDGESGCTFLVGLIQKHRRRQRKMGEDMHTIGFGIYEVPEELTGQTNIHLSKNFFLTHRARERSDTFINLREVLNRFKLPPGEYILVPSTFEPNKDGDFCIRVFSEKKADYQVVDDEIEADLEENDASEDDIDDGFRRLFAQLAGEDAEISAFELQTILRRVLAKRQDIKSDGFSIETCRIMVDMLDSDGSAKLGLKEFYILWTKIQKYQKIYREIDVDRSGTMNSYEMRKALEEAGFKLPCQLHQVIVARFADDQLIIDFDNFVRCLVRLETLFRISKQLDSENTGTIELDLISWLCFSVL

Fatty acid synthase [11] = molecular target: T2, Fatty acid synthase (Homo sapiens, UniProt P49327); assay: inhibition of human FAS-TE enzyme activity – biochemical, kinetic fluorescence intensity, dose response (AID 624326); type: functional;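 note: rate of fluorescence rise from hydrolysis of a fluorogenic O-methyl fluorescein ester substrate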
T2 sequence (P49327 whole entry): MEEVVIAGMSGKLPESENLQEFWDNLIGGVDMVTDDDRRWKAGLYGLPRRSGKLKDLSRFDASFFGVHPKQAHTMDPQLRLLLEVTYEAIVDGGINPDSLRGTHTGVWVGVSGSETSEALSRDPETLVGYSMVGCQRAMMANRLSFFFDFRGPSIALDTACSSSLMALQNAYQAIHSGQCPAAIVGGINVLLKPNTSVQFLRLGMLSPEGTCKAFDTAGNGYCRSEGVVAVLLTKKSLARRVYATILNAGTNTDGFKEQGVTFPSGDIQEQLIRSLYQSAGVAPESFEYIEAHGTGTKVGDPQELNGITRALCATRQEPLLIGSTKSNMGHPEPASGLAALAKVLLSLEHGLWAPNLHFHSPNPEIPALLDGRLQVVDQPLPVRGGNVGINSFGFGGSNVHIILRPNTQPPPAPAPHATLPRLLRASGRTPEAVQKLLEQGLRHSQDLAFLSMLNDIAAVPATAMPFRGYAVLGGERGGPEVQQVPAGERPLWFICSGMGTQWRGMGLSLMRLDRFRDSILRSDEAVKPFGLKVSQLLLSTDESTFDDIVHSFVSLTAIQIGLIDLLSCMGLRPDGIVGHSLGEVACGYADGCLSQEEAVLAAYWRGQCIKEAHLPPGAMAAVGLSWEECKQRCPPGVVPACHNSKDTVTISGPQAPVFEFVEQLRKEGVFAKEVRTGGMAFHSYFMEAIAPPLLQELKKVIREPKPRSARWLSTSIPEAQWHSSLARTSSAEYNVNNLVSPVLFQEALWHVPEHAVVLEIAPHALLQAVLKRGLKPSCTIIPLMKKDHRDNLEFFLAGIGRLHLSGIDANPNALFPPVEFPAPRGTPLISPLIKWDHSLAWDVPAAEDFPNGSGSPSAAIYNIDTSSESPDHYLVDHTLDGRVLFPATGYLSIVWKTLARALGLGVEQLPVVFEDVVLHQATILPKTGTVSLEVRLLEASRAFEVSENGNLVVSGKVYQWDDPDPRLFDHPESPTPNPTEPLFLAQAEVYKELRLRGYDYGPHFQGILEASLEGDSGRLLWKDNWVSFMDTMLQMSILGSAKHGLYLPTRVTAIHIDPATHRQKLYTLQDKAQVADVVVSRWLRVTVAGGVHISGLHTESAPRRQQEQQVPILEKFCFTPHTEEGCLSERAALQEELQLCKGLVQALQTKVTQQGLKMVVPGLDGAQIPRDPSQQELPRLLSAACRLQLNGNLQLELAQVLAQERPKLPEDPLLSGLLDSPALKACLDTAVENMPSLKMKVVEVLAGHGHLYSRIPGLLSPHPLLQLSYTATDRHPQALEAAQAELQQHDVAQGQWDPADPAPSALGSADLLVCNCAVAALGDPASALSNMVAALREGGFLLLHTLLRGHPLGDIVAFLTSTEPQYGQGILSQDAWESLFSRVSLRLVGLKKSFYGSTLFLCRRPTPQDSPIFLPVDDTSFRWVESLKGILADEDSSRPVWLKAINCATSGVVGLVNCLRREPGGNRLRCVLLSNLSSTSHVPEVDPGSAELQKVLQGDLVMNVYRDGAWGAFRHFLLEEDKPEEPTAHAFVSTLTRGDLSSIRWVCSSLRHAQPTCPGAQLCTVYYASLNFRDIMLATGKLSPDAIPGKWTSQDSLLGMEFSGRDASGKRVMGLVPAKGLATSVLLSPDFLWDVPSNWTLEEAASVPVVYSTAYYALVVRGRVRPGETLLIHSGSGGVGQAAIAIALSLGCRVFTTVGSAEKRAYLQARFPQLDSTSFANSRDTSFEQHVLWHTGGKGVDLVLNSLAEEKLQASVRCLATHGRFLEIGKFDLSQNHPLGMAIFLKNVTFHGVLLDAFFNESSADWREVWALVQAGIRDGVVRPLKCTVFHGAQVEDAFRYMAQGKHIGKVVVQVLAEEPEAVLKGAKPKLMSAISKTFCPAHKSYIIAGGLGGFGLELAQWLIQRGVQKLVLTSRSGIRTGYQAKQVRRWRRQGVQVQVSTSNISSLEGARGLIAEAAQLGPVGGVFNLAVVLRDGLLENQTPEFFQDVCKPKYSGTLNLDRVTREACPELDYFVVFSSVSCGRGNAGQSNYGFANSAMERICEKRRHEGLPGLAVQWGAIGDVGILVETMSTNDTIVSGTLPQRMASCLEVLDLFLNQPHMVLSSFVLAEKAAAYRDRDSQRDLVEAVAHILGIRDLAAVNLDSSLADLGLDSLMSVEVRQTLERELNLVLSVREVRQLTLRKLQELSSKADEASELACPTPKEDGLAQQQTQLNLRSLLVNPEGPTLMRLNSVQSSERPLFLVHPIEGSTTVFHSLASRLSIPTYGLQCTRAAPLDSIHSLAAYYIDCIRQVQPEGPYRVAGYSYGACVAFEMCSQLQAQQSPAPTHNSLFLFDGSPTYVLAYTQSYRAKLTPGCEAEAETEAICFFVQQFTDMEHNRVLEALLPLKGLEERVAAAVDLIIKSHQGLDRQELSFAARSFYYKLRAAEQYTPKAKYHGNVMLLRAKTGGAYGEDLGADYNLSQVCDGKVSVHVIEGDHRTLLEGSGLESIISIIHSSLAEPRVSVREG

Fatty acid synthase [12] = molecular target: T2, Fatty acid synthase; assay: inhibition of human FAS-TE enzyme activity – biochemical, endpoint fluorescence intensity, uHTS hits, dose response (AID 624327); type: functional;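 note: fluorescence from hydrolysis of an O-methyl fluorescein acyl ester substrate by the enzyme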
[13] = molecular target: T3, Replicative DNA helicase DnaB (Mycobacterium tuberculosis, UniProt P9WMR3); assay: DnaB intein splicing inhibitors, dose response, biochemical, cell-free fluorescence (AID 449749); type: functional
T3 sequence (P9WMR3 whole entry): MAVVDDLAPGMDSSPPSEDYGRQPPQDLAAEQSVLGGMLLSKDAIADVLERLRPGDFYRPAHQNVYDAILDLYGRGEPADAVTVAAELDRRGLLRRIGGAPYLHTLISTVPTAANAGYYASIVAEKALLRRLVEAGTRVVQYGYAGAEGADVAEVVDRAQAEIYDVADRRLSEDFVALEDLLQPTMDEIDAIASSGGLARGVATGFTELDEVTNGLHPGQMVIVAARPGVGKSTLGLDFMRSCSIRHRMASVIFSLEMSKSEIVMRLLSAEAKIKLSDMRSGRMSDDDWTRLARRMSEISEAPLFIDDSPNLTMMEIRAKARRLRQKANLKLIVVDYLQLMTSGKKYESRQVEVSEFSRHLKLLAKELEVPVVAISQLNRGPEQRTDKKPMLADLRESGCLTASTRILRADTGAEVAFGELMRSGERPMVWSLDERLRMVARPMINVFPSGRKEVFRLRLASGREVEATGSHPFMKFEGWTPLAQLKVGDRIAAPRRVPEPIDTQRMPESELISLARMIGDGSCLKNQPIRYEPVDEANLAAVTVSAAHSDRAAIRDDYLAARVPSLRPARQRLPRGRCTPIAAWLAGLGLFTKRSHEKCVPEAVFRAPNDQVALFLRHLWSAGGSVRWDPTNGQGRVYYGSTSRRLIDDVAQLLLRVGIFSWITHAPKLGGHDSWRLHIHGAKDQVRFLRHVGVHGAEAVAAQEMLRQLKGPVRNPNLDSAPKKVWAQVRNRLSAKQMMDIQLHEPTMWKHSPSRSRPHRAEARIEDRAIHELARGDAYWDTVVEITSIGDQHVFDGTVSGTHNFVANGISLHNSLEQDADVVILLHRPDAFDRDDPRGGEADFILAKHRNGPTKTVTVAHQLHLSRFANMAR

Protein RecA = molecular target: T4, Protein RecA (Mycobacterium tuberculosis, UniProt P9WHJ3); assay: Fluorescence Cell-Free Homogeneous Dose Retest to Identify Inhibitors of RecA-Intein Splicing Activity. [Related pubchem assays (depositor defined):AID2097, AID2223, AID489010, AID492950]; type: functional
T4 sequence (P9WHJ3 whole entry): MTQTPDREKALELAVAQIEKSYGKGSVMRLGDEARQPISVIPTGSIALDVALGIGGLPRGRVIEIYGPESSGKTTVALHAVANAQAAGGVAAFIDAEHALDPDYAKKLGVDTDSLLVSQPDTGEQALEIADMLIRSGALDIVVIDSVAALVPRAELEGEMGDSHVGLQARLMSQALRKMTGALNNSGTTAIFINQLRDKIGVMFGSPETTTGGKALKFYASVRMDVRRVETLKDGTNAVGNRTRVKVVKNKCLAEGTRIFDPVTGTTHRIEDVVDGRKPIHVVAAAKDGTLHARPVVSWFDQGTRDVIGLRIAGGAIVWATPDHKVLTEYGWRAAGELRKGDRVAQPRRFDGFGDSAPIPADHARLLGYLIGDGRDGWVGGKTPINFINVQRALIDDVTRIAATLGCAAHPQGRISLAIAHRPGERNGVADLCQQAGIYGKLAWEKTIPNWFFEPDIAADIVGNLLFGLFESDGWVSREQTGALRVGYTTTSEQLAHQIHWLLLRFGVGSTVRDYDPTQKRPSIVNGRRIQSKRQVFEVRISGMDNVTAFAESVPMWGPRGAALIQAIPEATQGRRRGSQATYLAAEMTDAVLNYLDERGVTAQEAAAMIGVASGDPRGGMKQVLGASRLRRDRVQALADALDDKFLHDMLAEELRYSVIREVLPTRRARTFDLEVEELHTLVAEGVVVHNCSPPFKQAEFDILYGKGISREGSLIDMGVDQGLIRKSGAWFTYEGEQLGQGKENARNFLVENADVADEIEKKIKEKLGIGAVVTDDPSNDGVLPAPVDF

[14] = loss of viability in HepG2 cells – cell-based, CellTiter-Glo, cherry-picked, cytotoxicity control for Shn3 inhibitor project, dose response (AID 624134); type: functional
[15] = non-specific 3'UTR reporter inhibition in Clone20-Shn3RL – cell-based, Renilla luciferase, cherry-picked, counter-screen for Shn3 inhibitor project, dose response (AID 624133); type: functional
[16] = reduction of Shn3 3'UTR-driven luciferase in osteoblasts – cell-based, Clone20 osteoblasts, firefly luciferase, cherry-picked, dose response (AID 624132); type: functional;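 note: firefly luciferase luminescence from reporter carrying the Shn3 3'UTR in osteoblasts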
[17] = HEK-293T viability loss after treatment – luminescence, T-cell screen hits, cytotoxicity control for TCR NF-kB inhibitor project, dose response (AID 489026); type: functional, cell-based;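 note: cells exposed to compound about 14 hours before the viability readout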
Large T antigen = Large T antigen (Simian virus 40, UniProt P03070); type: functional, Betapolyomavirus macacae;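 note: Confirmatory-stage PubChem screen for compounds that inhibit SV40 T antigen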
[18] = molecular target: T5, Voltage-gated N-type calcium channel alpha-1B subunit/Amyloid beta A4 precursor protein-binding family A member 1 (Homo sapiens, UniProt Q00975+Q02410); type: protein assay
[19] = molecular target: T5, Voltage-gated N-type calcium channel alpha-1B subunit/Amyloid beta A4 precursor protein-binding family A member 1; type: protein assay; remark: listed apart in the source
[20] = molecular target: Heat shock protein HSP 90-alpha (Homo sapiens, UniProt P07900); type: functional, organism-based

## NS(=O)(=O)c1ccc(CCNC(=O)c2cc(-c3cc(Cl)ccc3O)[nH]n2)cc1
[1]
  IC50: 43.3 µM (inactive)

## CCN(CC)S(=O)(=O)c1cccc(S(=O)(=O)c2cccc(S(=O)(=O)N(CC)CC)c2)c1
[2]
  AC50: 43.7 µM (active)
[3]
  AC50: 18.3 µM (active)
[4]
  AC50: 20.8 µM (active)

## O=C(/C=C/c1ccco1)NC(=S)Nc1cccc(-c2nc3ccccc3o2)c1
BJ [5]
  EC50: 3.83 µM (active)
BJ [6]
  EC50: 88.3 µM (active)
[7]
  EC50: 12.1 µM (inconclusive)
BJ [8]
  EC50: 9.72 µM (active)

## COc1cccc(-n2nc(-c3ccnn3-c3ccc(F)cc3)c(=O)n(C)c2=O)c1
Estrogen receptor beta
  IC50: > 50 µM (not active)

## O=C(CC1SCCNC1=O)Nc1cccc(Cl)c1 (configuration not stated)
[9]
  IC50: 20.8 µM (inactive)

## CC(=O)Nc1cccc(NC(=O)c2cc(-c3cccnc3)nc3ccc(Br)cc23)c1
H9c2
  IC50: 37.9 µM (inactive)

## Cc1cc(-c2ccc(N3C(=O)CCC3=O)c(C)c2)ccc1N1C(=O)CCC1=O
Estrogen receptor beta
  IC50: > 50 µM (not active)

## CCN(CC)C(=O)CSc1nc(Cc2ccccc2)nc2ccccc12
[9]
  IC50: > 73.4 µM (inactive)

## Cc1ccc(C)c(NC(=O)Cc2nc(CCl)cs2)c1
[10]
  IC50: 1.04 µM (not active)

## O=C(Nc1ccc(Br)cc1)c1cccc(-n2cnnn2)c1
Fatty acid synthase [11]
  IC50: 24.8 µM (inactive)
Fatty acid synthase [12]
  IC50: 32.9 µM (inactive)

## CCc1ccc(C(=O)C(C)OC(=O)Cc2nnc(O)c3ccccc23)cc1 (configuration not stated)
BJ [5]
  EC50: > 150 µM (inconclusive)
BJ [6]
  EC50: 49.9 µM (inconclusive)
[7]
  EC50: 17.9 µM (active)
BJ [8]
  EC50: 18.2 µM (active)

## O=C(COC(=O)CSc1ccc2ccccc2c1)Nc1ccccc1OC(F)F
[10]
  IC50: 1.8 µM (not active)

## N#CC12CCCCC1CC1CCCCC1(C#N)N2Cc1cccnc1 (configuration not stated)
[9]
  IC50: 1.68 µM (active)

## Cc1c([C@H]2[C@@H](CC#N)C2(C)C)c2ccccc2n1C
Estrogen receptor beta
  IC50: > 50 µM (not active)

## O=[N+]([O-])c1ccc(Oc2cccc(F)c2)c2ccncc12
[10]
  IC50: 3.5 µM (not active)
[13]
  AC50: > 380 µM (inactive)
Protein RecA
  EC50: 0.956 µM (active)

## COc1ccc(/C=C/C(=O)c2ccc(C(=O)/C=C/c3ccc(OC)c(OC)c3)cc2)cc1OC
BJ [5]
  EC50: 10.7 µM (inconclusive)
[14]
  AC50: 69.1 µM (active)
BJ [6]
  EC50: 27 µM (active)
[7]
  EC50: 10.4 µM (active)
[15]
  AC50: 25.9 µM (active)
BJ [8]
  EC50: 7.92 µM (active)
[16]
  AC50: 5.18 µM (active)

## COc1cc(NS(=O)(=O)c2ccc(OC)c(C)c2C)c(OC)cc1Cl
[17]
  IC50: > 80 µM (inactive)

## Cn1sc(=O)c2cc(S(=O)(=O)NC3CC3)ccc21
Large T antigen
  IC50: 57.3 µM (active)
[18]
  IC50: 15.6 µM (active)
[19]
  IC50: 9.45 µM (active)

## COc1cccc(NC(=O)NC2(C(F)(F)F)Oc3ccccc3O2)c1
H9c2
  IC50: > 79 µM (inactive)

## COc1ccc(OC)c(C2CC(=O)c3c([nH]c(C(=O)OCC4CCCO4)c3C)C2)c1 (configuration not stated)
H9c2
  IC50: 21.1 µM (active)

## O=C(/C=C/c1ccc([N+](=O)[O-])cc1)N(c1ccccn1)C1CCCCC1
[18]
  IC50: 10.5 µM (active)
[19]
  IC50: 29.1 µM (active)

## O=C(CN=C(S)N(Cc1ccccc1)Cc1ccccc1F)NCc1ccccc1
[10]
  IC50: > 50 µM (not active)

## C[C@@]12C(=O)N(c3cccc(Br)c3)C(=O)N1[C@H](c1ccc(Cl)cc1)[C@@H]1C(=O)N(C3CCCCC3)C(=O)[C@@H]12
Fatty acid synthase [11]
  IC50: 5.22 µM (active)
Fatty acid synthase [12]
  IC50: 7.4 µM (active)

## Oc1ccc(O)c2c1C1(Cl)C(Cl)=C(Cl)C2(Cl)C1(Cl)Cl
Fatty acid synthase [11]
  IC50: 14.1 µM (active)
Fatty acid synthase [12]
  IC50: 15.7 µM (active)
[20]
  AC50: 8.21 µM (active)

## COc1ccc(C(=O)N2CCN(CCc3ccccc3)CC2)cc1[N+](=O)[O-]
Fatty acid synthase [11]
  IC50: 0.525 µM (active)
Fatty acid synthase [12]
  IC50: 0.786 µM (active)

## CC(=O)Nc1ccc2c(c1)nc(O)c1ccccc12
H9c2
  IC50: 34 µM (inactive)

## COc1cc(-c2cc(C(=O)NCc3ccco3)c3ccccc3n2)cc(OC)c1OC
H9c2
  IC50: 13.2 µM (active)

## CN(C)C(=O)CSc1nc(O)c2ccccc2n1
H9c2
  IC50: > 79 µM (inactive)

## CCc1nc2ccc(C(=O)Nc3cccc(OCC(=O)N(C)C)c3)cn2c1N(C)Cc1cc2ccccc2s1
H9c2
  IC50: > 79 µM (inactive)

## OCCNc1ncnc2c1ncn2[C@H]1CN(Cc2ccc(-c3ccccc3)cc2)C[C@@H](CO)O1
[9]
  IC50: 12.6 µM (inactive)

## CSc1ccc(CN2C(=O)C(F)(F)Oc3c(C(C)=O)cccc32)cc1
Fatty acid synthase [11]
  IC50: 9.77 µM (active)
Fatty acid synthase [12]
  IC50: 9.19 µM (active)

## COc1cc(/C=N/n2cnnc2)ccc1OS(=O)(=O)c1ccccc1[N+](=O)[O-]
[10]
  IC50: 15.5 µM (not active)
